EC50 data for 11 molecules are collected here from US7745463B2, “Alkene piperidine derivatives as antiviral agents” (priority 2006, dated 2010).

The EC50 is the concentration that produces a half-maximal response.

The assay deals with HIV-1 single-round infectious reporter virus. Kind of assay: Single-round infectious HIV-1 reporter virus (luciferase) infection of HeLa CD4 cells. The assay is classed as cell-based. As to conditions: Human immunodeficiency virus 1, HeLa, 72 h, read-out: EC50 Group from Table 1. As for the experimental part:
• Virus production—Human embryonic Kidney cell line, 293T, was propagated in Dulbecco's Modified Eagle Medium (Invitrogen, Carlsbad, Calif.) containing 10% fetal Bovine serum (FBS, Sigma, St. Louis, Mo.). • Virus infection-Human epithelial cell line, HeLa, expressing the HIV-1 receptor CD4 was propagated in Dulbecco's Modified Eagle Medium (Invitrogen, Carlsbad, Calif.) containing 10% fetal Bovine serum (FBS, Sigma, St. Louis, Mo.) and supplemented with 0.2 mg/mL Geneticin (Invitrogen, Carlsbad, Calif.). • Virus-Single-round infectious reporter virus was produced by co-transfecting human embryonic Kidney 293 cells with an HIV-1 envelope DNA expression vector and a proviral cDNA containing an envelope deletion mutation and the luciferase reporter gene inserted in place of HIV-1 nef sequences (Chen et al, Ref. 41). Transfections were performed using lipofectAMINE PLUS reagent as described by the manufacturer (Invitrogen, Carlsbad, Calif.). Experiment: • HeLa CD4 cells were plated in 96 well plates at a cell density of 1×10^4 cells per well in 100 μl Dulbecco's Modified Eagle Medium containing 10% fetal Bovine serum and incubated overnight. • Compound was added in a 2 μl dimethylsulfoxide solution, so that the final assay concentration would be ≦10 μM. • 100 μl of single-round infectious reporter virus in Dulbecco's Modified Eagle Medium was then added to the plated cells and compound at an approximate multiplicity of infection (MOI) of 0.01, resulting in a final volume of 200 μl per well. • Virally-infected cells were incubated at 37 degrees Celsius, in a CO2 incubator, and harvested 72 h after infection. • Viral infection was monitored by measuring luciferase expression from viral DNA in the infected cells using a luciferase reporter gene assay kit, as described by the manufacturer (Roche Molecular Biochemicals, Indianapolis, Ind.). Infected cell supernatants were removed and 50 μl of lysis buffer was added per well. After 15 minutes, 50 μl of freshly-reconstituted luciferase assay reagent was added per well. Luciferase activity was then quantified by measuring luminescence using a Wallac microbeta scintillation counter. • The percent inhibition for each compound was calculated by quantifying the level of luciferase expression in cells infected in the presence of each compound as a percentage of that observed for cells infected in the absence of compound and subtracting such a determined value from 100. • An EC50 provides a method for comparing the antiviral potency of the compounds of this disclosure. The effective concentration for fifty percent inhibition (EC50) was calculated with the Microsoft Excel Xlfit curve fitting software. For each compound, curves were generated from percent inhibition calculated at 10 different concentrations by using a four paramenter logistic model (model 205). Table 1 is the key for the data in Table 2.

Regarding `CC(Oc1cccc2ncccc12)C(=O)N1CCC(=C(C#N)c2ccccc2)CC1` (centres unmarked), the EC50 was below 1 µM.

In the case of `CC(Oc1cccc2ncccc12)C(=O)N1CCC(=C(C#N)c2ccccc2)CC1C` (centres unmarked), the EC50 is below 1 µM.

In the case of `CC(Oc1cccc2ncccc12)C(=O)N1CCC(=C(c2ccccc2)c2ccccc2)CC1` (centres unmarked), the EC50 was above 1 µM.

In the case of `CC(Oc1cccc2ncccc12)C(=O)N1CCC(=C(c2ccccc2)c2cccnc2)CC1` (centres unmarked), the EC50 was above 1 µM.

As to `Cc1nnc(C(=C2CCN(C(=O)C(C)Oc3cccc4ncccc34)CC2)c2ccccc2)o1` (centres unmarked), the EC50 is above 1 µM.

Take `COC(=O)c1ccc(OC(C)C(=O)N2CCC(=C(C#N)c3ccccc3)CC2)c(OC)c1` (centres unmarked): the half-maximal effective concentration (EC50) was below 1 µM.

For the molecule `COC(=O)c1ccc(OC(C)C(=O)N2CCC(=C(C#N)c3ccccc3)CC2C)c(OC)c1` (centres unmarked), the EC50 is below 1 µM.

For the molecule `COC(=O)c1ccc(OC(C)C(=O)N2CCC(=C(c3ccccc3)c3ccccc3)CC2)c(OC)c1` (centres unmarked), the concentration for a half-maximal effect (EC50) is below 1 µM.

For the molecule `COC(=O)c1ccc(OC(C)C(=O)N2CCC(=C(c3ccccc3)c3cccnc3)CC2)c(OC)c1` (centres unmarked), the concentration giving a half-maximal response (EC50) is above 1 µM.

Turning to `COC(=O)c1ccc(OC(C)C(=O)N2CCC(=C(c3ccccc3)c3nnc(C)o3)CC2)c(OC)c1` (centres unmarked), the EC50 is below 1 µM.

In the case of `CC(Oc1cccc2cccnc12)C(=O)N1CCC(=C(C#N)c2ccccc2)CC1` (centres unmarked), the EC50 was below 1 µM.
